Measured values published in ChEMBL document CHEMBL4354805, “Discovery of MK-8719, a Potent O-GlcNAcase Inhibitor as a Potential Treatment for Tauopathies” (J Med Chem, 2019).

Legend:
[1] = Volume of distribution at steady state in rhesus monkey at 1 mg/kg, iv or 3 mg/kg, po; format: ADME, organism-based, Macaca mulatta; details: in vivo, read-out: Vdss
[2] = target: Cytochrome P450 3A4 (Homo sapiens, UniProt P08684); assay: Induction of CYP3A4 in human hepatocytes upto 20 uM; format: ADME, cell-based
[3] = target: T1, Beta-hexosaminidase subunit beta (Homo sapiens, UniProt P07686); assay: Inhibition of human beta hexosaminidase assessed as inhibitory constant using 4-methylumbelliferyl N-acetyl-beta-D-glucosaminide dihydrate as substrate measured every 60 sec for 45 mins by fluorescence spectrophotometry
T1 sequence (P07686 whole entry): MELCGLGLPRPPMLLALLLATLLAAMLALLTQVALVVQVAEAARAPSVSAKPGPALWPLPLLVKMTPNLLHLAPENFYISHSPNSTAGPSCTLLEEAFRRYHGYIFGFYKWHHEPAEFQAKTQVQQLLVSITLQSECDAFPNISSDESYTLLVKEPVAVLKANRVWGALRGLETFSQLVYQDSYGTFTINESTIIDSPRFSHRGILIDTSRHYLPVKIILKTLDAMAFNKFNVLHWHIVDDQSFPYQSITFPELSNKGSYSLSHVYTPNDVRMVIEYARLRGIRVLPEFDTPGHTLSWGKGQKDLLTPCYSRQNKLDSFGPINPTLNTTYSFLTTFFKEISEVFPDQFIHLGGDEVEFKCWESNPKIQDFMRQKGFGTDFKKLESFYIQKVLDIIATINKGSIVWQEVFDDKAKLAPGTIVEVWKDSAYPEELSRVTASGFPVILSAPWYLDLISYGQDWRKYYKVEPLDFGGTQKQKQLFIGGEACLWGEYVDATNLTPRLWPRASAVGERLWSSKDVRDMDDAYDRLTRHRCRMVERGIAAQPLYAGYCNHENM

[4] = Ratio of drug uptake in rat brain to plasma at 3 mg/kg, po measured after 24 hrs; format: ADME, organism-based; details: read-out: BPR
[5] = Stability in monkey hepatocytes assessed as parent compound remaining at 10 uM incubated for 120 mins; format: ADME, cell-based, Macaca mulatta, Hepatocyte; details: rhesus monkey, read-out: Stability
[6] = Oral bioavailability in Beagle dog at 3 mg/kg; format: ADME, organism-based, Canis lupus familiaris; details: in vivo
[7] = Volume of distribution at steady state in Wistar Han rat at 2 mg/kg, iv or 10 mg/kg, po; format: ADME, organism-based; details: in vivo, read-out: Vdss

Chain of Cytochrome P450 3A4 (P08684 whole entry): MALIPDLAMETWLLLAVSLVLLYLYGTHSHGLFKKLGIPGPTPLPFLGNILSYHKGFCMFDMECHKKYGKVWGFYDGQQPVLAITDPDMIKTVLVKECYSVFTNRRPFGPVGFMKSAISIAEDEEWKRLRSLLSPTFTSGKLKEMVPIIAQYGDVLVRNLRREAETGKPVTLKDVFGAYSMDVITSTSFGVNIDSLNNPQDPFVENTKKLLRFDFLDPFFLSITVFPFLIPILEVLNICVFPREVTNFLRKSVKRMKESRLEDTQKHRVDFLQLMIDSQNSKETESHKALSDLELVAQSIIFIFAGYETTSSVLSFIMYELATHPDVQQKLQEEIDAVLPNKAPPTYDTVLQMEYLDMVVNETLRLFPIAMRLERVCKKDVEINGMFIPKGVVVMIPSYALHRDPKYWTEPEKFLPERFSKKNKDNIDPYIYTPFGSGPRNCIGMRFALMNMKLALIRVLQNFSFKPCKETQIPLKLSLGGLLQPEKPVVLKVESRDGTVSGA

- Vd [1]: 3.1 L/kg
- Activity [2]: Not Active
- Ki [3]: > 10 µM
- Kp at 24 h [4]: ≥ 20.5
- remaining at 2 h, 10 µM [5]: 58%
- bioavailability [6]: 90%
- Vd [7]: 3.7 L/kg
Compound: CCNC1=N[C@@H]2[C@@H](O)[C@H](O)[C@@H](C(F)F)O[C@@H]2S1
